In PubChem BioAssay AID1918995 (Molecular Pharmacology Branch, DTP, NCI, 2023):
Several values for one entry are separate records, joined by “and”; a condition that tells them apart may be missing. Equal values may be shown once. Each block holds one compound with its values, some of them ahead of it.

System: 324938-238-R-J1-PDC complex spheroid growth, % test/control
Assay: Anticancer human tumor 324938-238-R-J1-PDC patient-derived bladder carcinoma cell line growth inhibition [AhR]
Details: for viability, T/C: stronger effect = lower value
How it was run: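 Complex tumor spheroids co-cultured with HUVEC and human MSC stroma; AhR antagonists tested in combination with standard-of-care and investigational agents. Top concentration at or near clinical Cmax (else 10 microM), half-log dilutions; growth expressed as percent test/control.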

[1] = curve of first compound, second compound 0.1 µM
[2] = curve of first compound, second compound 0.316 µM
[3] = curve of first compound, second compound 1 µM
[4] = curve of first compound, second compound 3.16 µM
[5] = curve of first compound, second compound 10 µM
[6] = second compound 0.1 µM, first compound 0.00949 µM
[7] = second compound 0.1 µM, first compound 0.03 µM
[8] = second compound 0.1 µM, first compound 0.0949 µM
[9] = second compound 0.1 µM, first compound 0.3 µM
[10] = second compound 0.316 µM, first compound 0.00949 µM
[11] = second compound 0.316 µM, first compound 0.03 µM
[12] = second compound 0.316 µM, first compound 0.0949 µM
[13] = second compound 0.316 µM, first compound 0.3 µM
[14] = second compound 1 µM, first compound 0.00949 µM
[15] = second compound 1 µM, first compound 0.03 µM
[16] = second compound 1 µM, first compound 0.0949 µM
[17] = second compound 1 µM, first compound 0.3 µM
[18] = second compound 3.16 µM, first compound 0.00949 µM
[19] = second compound 3.16 µM, first compound 0.03 µM
[20] = second compound 3.16 µM, first compound 0.0949 µM
[21] = second compound 3.16 µM, first compound 0.3 µM
[22] = second compound 10 µM, first compound 0.00949 µM
[23] = second compound 10 µM, first compound 0.03 µM
[24] = second compound 10 µM, first compound 0.0949 µM
[25] = second compound 10 µM, first compound 0.3 µM
[26] = second compound 0.1 µM, first compound 0.0316 µM
[27] = second compound 0.1 µM, first compound 0.1 µM
[28] = second compound 0.316 µM, first compound 0.0316 µM
[29] = second compound 0.316 µM, first compound 0.1 µM
[30] = second compound 1 µM, first compound 0.0316 µM
[31] = second compound 1 µM, first compound 0.1 µM
[32] = second compound 3.16 µM, first compound 0.0316 µM
[33] = second compound 3.16 µM, first compound 0.1 µM
[34] = second compound 10 µM, first compound 0.0316 µM
[35] = second compound 10 µM, first compound 0.1 µM
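Further: spheroids exposed to agents for seven days before viability read.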

Compound: Nc1ncn(C2CC(O)C(CO)S2)c(=O)n1 (stereo unspecified) + CC(CO)NC(=O)c1cc(-c2ccc(Cl)cc2)nn(-c2cnn(C)c2)c1=O
- IC50 [1]: 0.284 µM
- IC50 [2]: 0.254 µM
- IC50 [3]: > 0.3 µM
- IC50 [4]: 0.139 µM
- IC50 [5]: > 0.3 µM
- viability, T/C (second compound 0.1 µM, first compound 0.000949 µM): 99.4%
- viability, T/C (second compound 0.1 µM, first compound 0.003 µM): 93.2%
- viability, T/C [6]: 90.7%
- viability, T/C [7]: 84%
- viability, T/C [8]: 69.4%
- viability, T/C [9]: 49%
- viability, T/C (second compound 0.316 µM, first compound 0.000949 µM): 93.9%
- viability, T/C (second compound 0.316 µM, first compound 0.003 µM): 88.4%
- viability, T/C [10]: 78.1%
- viability, T/C [11]: 78.7%
- viability, T/C [12]: 64.2%
- viability, T/C [13]: 46.5%
- viability, T/C (second compound 1 µM, first compound 0.000949 µM): 91.9%
- viability, T/C (second compound 1 µM, first compound 0.003 µM): 89.6%
- viability, T/C [14]: 90.5%
- viability, T/C [15]: 69.4%
- viability, T/C [16]: 59.1%
- viability, T/C [17]: 54.2%
- viability, T/C (second compound 3.16 µM, first compound 0.000949 µM): 75.1%
- viability, T/C (second compound 3.16 µM, first compound 0.003 µM): 75.4%
- viability, T/C [18]: 70.3%
- viability, T/C [19]: 58%
- viability, T/C [20]: 57%
- viability, T/C [21]: 41.6%
- viability, T/C (second compound 10 µM, first compound 0.000949 µM): 64.6%
- viability, T/C (second compound 10 µM, first compound 0.003 µM): 72.6%
- viability, T/C [22]: 57.1%
- viability, T/C [23]: 65.2%
- viability, T/C [24]: 52.5%
- viability, T/C [25]: 53.3%

Compound: O=C(C=Cn1cnc(-c2cc(C(F)(F)F)cc(C(F)(F)F)c2)n1)NNc1cnccn1
- viability, T/C (compound 0.00949 µM): 129% and 95.9% and 85.8%
- viability, T/C (compound 0.03 µM): 100% and 95.8% and 75.1%
- viability, T/C (compound 0.0949 µM): 71.5% and 69.7% and 47.7%
- viability, T/C (compound 0.3 µM): 58.5% and 34.4% and 27%
- viability, T/C (compound 0.949 µM): 45.4% and 16.9% and 15.9%
- IC50 (curve of compound): 0.681 µM and 0.184 µM and 0.0921 µM

Compound: COc1ccc([C@@H](O)c2cc(-c3ncnc4cc(N5CCOCC5)ccc34)c(F)cc2Cl)nn1 + Cc1ccccc1N=Nc1ccc(NC(=O)c2ccnn2C)c(C)c1
- IC50 [1]: > 10 µM
- IC50 [2]: > 10 µM
- IC50 [3]: > 10 µM
- IC50 [4]: 9.01 µM
- IC50 [5]: 7.49 µM
- viability, T/C [26]: 109%
- viability, T/C [27]: 110%
- viability, T/C (second compound 0.1 µM, first compound 0.316 µM): 98.5%
- viability, T/C (second compound 0.1 µM, first compound 1 µM): 96.8%
- viability, T/C (second compound 0.1 µM, first compound 3.16 µM): 80.7%
- viability, T/C (second compound 0.1 µM, first compound 10 µM): 65.2%
- viability, T/C [28]: 94.3%
- viability, T/C [29]: 99.9%
- viability, T/C (second compound 0.316 µM, first compound 0.316 µM): 89.8%
- viability, T/C (second compound 0.316 µM, first compound 1 µM): 83.4%
- viability, T/C (second compound 0.316 µM, first compound 3.16 µM): 74.9%
- viability, T/C (second compound 0.316 µM, first compound 10 µM): 58.6%
- viability, T/C [30]: 100%
- viability, T/C [31]: 87.6%
- viability, T/C (second compound 1 µM, first compound 0.316 µM): 93%
- viability, T/C (second compound 1 µM, first compound 1 µM): 84.1%
- viability, T/C (second compound 1 µM, first compound 3.16 µM): 72.2%
- viability, T/C (second compound 1 µM, first compound 10 µM): 55.4%
- viability, T/C [32]: 83.5%
- viability, T/C [33]: 83.5%
- viability, T/C (second compound 3.16 µM, first compound 0.316 µM): 75.7%
- viability, T/C (second compound 3.16 µM, first compound 1 µM): 65.1%
- viability, T/C (second compound 3.16 µM, first compound 3.16 µM): 57.4%
- viability, T/C (second compound 3.16 µM, first compound 10 µM): 48.8%
- viability, T/C [34]: 72.7%
- viability, T/C [35]: 81.1%
- viability, T/C (second compound 10 µM, first compound 0.316 µM): 72.7%
- viability, T/C (second compound 10 µM, first compound 1 µM): 66.6%
- viability, T/C (second compound 10 µM, first compound 3.16 µM): 59.2%
- viability, T/C (second compound 10 µM, first compound 10 µM): 47%

Continued, in another order:

- IC50 [1]: 0.0196 µM
- IC50 [2]: 0.0207 µM
- IC50 [3]: 0.0185 µM
- IC50 [4]: 0.017 µM
- IC50 [5]: 0.02 µM
Compound: CC[C@@]1(O)C(=O)OCc2c1cc1n(c2=O)Cc2cc3c(CN(C)C)c(O)ccc3nc2-1 + Cc1ccccc1N=Nc1ccc(NC(=O)c2ccnn2C)c(C)c1
- viability, T/C (second compound 0.1 µM, first compound 0.000316 µM): 102%
- viability, T/C (second compound 0.1 µM, first compound 0.001 µM): 107%
- viability, T/C (second compound 0.1 µM, first compound 0.00316 µM): 88.9%
- viability, T/C (second compound 0.1 µM, first compound 0.01 µM): 74.6%
- viability, T/C [26]: 32.8%
- viability, T/C [27]: 16.2%
- viability, T/C (second compound 0.316 µM, first compound 0.000316 µM): 91.9%
- viability, T/C (second compound 0.316 µM, first compound 0.001 µM): 101%
- viability, T/C (second compound 0.316 µM, first compound 0.00316 µM): 94.8%
- viability, T/C (second compound 0.316 µM, first compound 0.01 µM): 70.7%
- viability, T/C [28]: 38.1%
- viability, T/C [29]: 17.4%
- viability, T/C (second compound 1 µM, first compound 0.000316 µM): 86.8%
- viability, T/C (second compound 1 µM, first compound 0.001 µM): 98.5%
- viability, T/C (second compound 1 µM, first compound 0.00316 µM): 86.6%
- viability, T/C (second compound 1 µM, first compound 0.01 µM): 66%
- viability, T/C [30]: 36%
- viability, T/C [31]: 15.7%
- viability, T/C (second compound 3.16 µM, first compound 0.000316 µM): 86.2%
- viability, T/C (second compound 3.16 µM, first compound 0.001 µM): 86.3%
- viability, T/C (second compound 3.16 µM, first compound 0.00316 µM): 87%
- viability, T/C (second compound 3.16 µM, first compound 0.01 µM): 61.9%
- viability, T/C [32]: 34.7%
- viability, T/C [33]: 15.6%
- viability, T/C (second compound 10 µM, first compound 0.000316 µM): 83.9%
- viability, T/C (second compound 10 µM, first compound 0.001 µM): 88.3%
- viability, T/C (second compound 10 µM, first compound 0.00316 µM): 73.6%
- viability, T/C (second compound 10 µM, first compound 0.01 µM): 63.9%
- viability, T/C [34]: 41.3%
- viability, T/C [35]: 18.7%

- IC50 [1]: 0.173 µM
- IC50 [2]: 0.171 µM
- IC50 [3]: 0.178 µM
- IC50 [4]: 0.144 µM
- IC50 [5]: 0.172 µM
Compound: O=C(C=Cn1cnc(-c2cc(C(F)(F)F)cc(C(F)(F)F)c2)n1)NNc1cnccn1 + Cc1ccccc1N=Nc1ccc(NC(=O)c2ccnn2C)c(C)c1
- viability, T/C [6]: 91.4%
- viability, T/C [7]: 95.5%
- viability, T/C [8]: 62.7%
- viability, T/C [9]: 35.8%
- viability, T/C (second compound 0.1 µM, first compound 0.949 µM): 19.1%
- viability, T/C (second compound 0.1 µM, first compound 3 µM): 8.4%
- viability, T/C [10]: 90.4%
- viability, T/C [11]: 90.6%
- viability, T/C [12]: 67.8%
- viability, T/C [13]: 32.1%
- viability, T/C (second compound 0.316 µM, first compound 0.949 µM): 19.9%
- viability, T/C (second compound 0.316 µM, first compound 3 µM): 11.9%
- viability, T/C [14]: 86.4%
- viability, T/C [15]: 79.8%
- viability, T/C [16]: 65.6%
- viability, T/C [17]: 37.1%
- viability, T/C (second compound 1 µM, first compound 0.949 µM): 18.6%
- viability, T/C (second compound 1 µM, first compound 3 µM): 10.7%
- viability, T/C [18]: 84.7%
- viability, T/C [19]: 72%
- viability, T/C [20]: 58.2%
- viability, T/C [21]: 37.5%
- viability, T/C (second compound 3.16 µM, first compound 0.949 µM): 23.4%
- viability, T/C (second compound 3.16 µM, first compound 3 µM): 16.3%
- viability, T/C [22]: 78.4%
- viability, T/C [23]: 78.7%
- viability, T/C [24]: 62.5%
- viability, T/C [25]: 37.2%
- viability, T/C (second compound 10 µM, first compound 0.949 µM): 26.7%
- viability, T/C (second compound 10 µM, first compound 3 µM): 18.6%
